Reference: US11976076B1 (priority 2023, dated 2024)
Values after ≈ are worked out from the molar mass of the structure shown.

Key:
[1] = system: Mycobacterium tuberculosis H37Rv (ATCC: 25177); test: Resazurin Microplate Assay (REMA), anti-tubercular activity against H37Rv; format: cell-based; details: 192 h, read-out: Anti-tubercular activity (MIC) H37Rv

Row | SMILES | melting point | MIC [1]
1 | O=c1[nH]c(=S)[nH]c2[nH]c(=S)nc(-c3c[nH]c4ccccc34)c12 [Compound 4b, 5-(1H-Indol-3-yl)-2,7-dithioxo-2,3,7,8-tetrahydropyrimido[4,5-d]pyrimidin-4(1H)-one] | 188 to 190 °C | 2 mg/L (≈ 6.11 µM)
2 | O=c1[nH]c(=O)c2c(-c3c[nH]c4ccccc34)nc(=S)[nH]c2[nH]1 [Compound 4a, 5-(1H-Indol-3-yl)-7-thioxo-7,8-dihydropyrimido[4,5-d]pyrimidine-2,4(1H,3H)-dione] | 114 to 116 °C | 4 mg/L (≈ 12.8 µM)
3 | Cn1c(=O)c2c(-c3c[nH]c4ccccc34)nc(=S)[nH]c2n(C)c1=O [Compound 4c, 5-(1H-Indol-3-yl)-1,3-dimethyl-7-thioxo-7,8-dihydropyrimido[4,5-d]pyrimidine-2,4(1H,3H)-dione] | 258 to 260 °C | 1 mg/L (≈ 2.95 µM)
